Several values for one entry are separate records, joined by “and”; a condition that tells them apart may be missing. Equal entries are not always repeated.
Tested on: 994946-033-R-J1-PDC complex spheroid viability
Assay: Anticancer human tumor 994946-033-R-J1-PDC patient-derived melanoma cell line growth inhibition [POLQ]
Conditions: for viability, T/C: stronger effect = lower value
Protocol: Multicellular complex tumor spheroid response to Polymerase (POL) inhibitors (novobiocin, ART-558, RP6685) in combination with a variety of drugs and investigational agents in selected tumor cell lines
The POL inhibitors (novobiocin, ART-558, and RP6685) were evaluated both individually and in combination with standard of care and investigational anticancer small molecules within a complex spheroid model of solid tumors. . Complex spheroids include a stromal component modeled by human endothelial cells (HUVEC) and fibroblasts modeled by human mesenchymal stem cells (MSCs). The concentration ranges selected for each drug and investigational agent were based upon clinically achievable concentrations if the clinical Cmax of the agent was known.
Compounds. The drugs and investigational agents: novobiocin (NSC847541), ART-558 (NSC835418), RP-6685 (NSC848927), peposertib (NSC802822), ceralasertib (NSC780249), elimusertib (NSC800525), camonsertib (NSC841442), AZD-1390 (NSC803789), olaparib (NSC753686), talazoparib (NSC767125), rucaparib (NSC756644), sotorasib (NSC818433), MRTX-1133 (NSC836407), SN-38 (NSC673596), topotecan (NSC609699), epotoside (NSC141540), doxorubicin (NSC123127), gemcitabine (NSC613327), 5-fluorouracil (NSC19893), paclitaxel (NSC125973), vemurafenib (NSC761431), MSA-2 (NSC828583), SN-011 (NSC837082), adavosertib (NSC754352), prexasertib (NSC758257), carboplatin (NSC241240) and oxaliplatin (NSC266046), were obtained from the National Cancer Institute (NCI) Developmental Therapeutics Program Chemical Repository (21). The FDA-approved anticancer drug set is available from the Developmental Therapeutics Program at https://dtp.cancer.gov/organization/dscb/obtaining/. […] The stock solutions were prepared in dimethyl sulfoxide (DMSO, Sigma-Aldrich, St. Louis, MO, cat. D2650), except for the platinum compounds which were prepared in saline (Quality Biological, Gaithersburg, MD, cat. 114-055-101), at 800-fold the tested concentration and stored at -70 degrees C prior to their use. All drugs and investigational agents were tested over a range starting from a high concentration at or near the clinical Cmax and decreasing in half-log increments. If the clinical Cmax for an agent had not been determined, the highest concentration tested was 10 microM, except for SN-38, which was tested at a high concentration of 1 microM.
Cell Culture. All cells were maintained in an incubator at 37 degrees C and 5% CO2 with 95% humidity. The PDC lines were cultured according to standard operating procedures established by the NCI PDMR (https://pdmr.cancer.gov). Table 3 of the manuscript, lists the cell lines along with the number of the three cell types plated to form the mct-spheroids and media for tumor cell growth. After thawing, all PDC lines, except 997537-175-T-J1-PDC and 415267-285-R-J2-PDC, were cultured in Matrigel-coated flasks prepared with a working solution of 1X Ham's F-12 nutrient mix, without supplementation (Thermo Fisher Scientific, cat. 11765054), 100 U/mL penicillin-streptomycin (Thermo Fisher Scientific, cat. 15140122), and 2.5% Matrigel (Corning Inc., Corning, NY, cat. 354248) for the first three passages. The two PDC lines 997537-175-T-J1-PDC and 415267-285-R-J2-PDC were cultured on uncoated flasks. The 857933-349-R-J2-PDC line was cultured in 6C/Colon 1B media containing advanced DMEM/F-12 (Thermo Fisher Scientific, cat. 12634028), 10 mM HEPES (Thermo Fisher Scientific, cat. 15630080), 1X GlutaMAX supplement (Thermo Fisher Scientific, cat. 35050061), 0.1 mg/mL primocin (InvivoGen, San Diego, CA, cat. ant-pm-2), 10% defined fetal bovine serum, heat inactivated (HyClone Laboratories Inc., Logan, UT, cat. SH30070.03HI), 50% L-WRN conditioned media (ATCC, cat. CRL-3276), 1.25 mM N-Acetyl-L-cysteine (Sigma-Aldrich, cat. A9165), 10 mM nicotinamide (Sigma-Aldrich, cat. N0636), 1X B-27 supplement (Thermo Fisher Scientific, cat. 17504044), 1X N-2 supplement (Thermo Fisher Scientific, cat. […]

[1] = curve of first compound, second compound 0.0316 µM
[2] = curve of first compound, second compound 0.1 µM
[3] = curve of first compound, second compound 0.316 µM
[4] = curve of first compound, second compound 1 µM
[5] = curve of first compound, second compound 3.16 µM
[6] = curve of first compound, second compound 10 µM
[7] = second compound 0.0316 µM, first compound 0.0316 µM
[8] = second compound 0.0316 µM, first compound 0.1 µM
[9] = second compound 0.0316 µM, first compound 0.316 µM
[10] = second compound 0.0316 µM, first compound 1 µM
[11] = second compound 0.0316 µM, first compound 3.16 µM
[12] = second compound 0.0316 µM, first compound 10 µM
[13] = second compound 0.1 µM, first compound 0.0316 µM
[14] = second compound 0.1 µM, first compound 0.1 µM
[15] = second compound 0.1 µM, first compound 0.316 µM
[16] = second compound 0.1 µM, first compound 1 µM
[17] = second compound 0.1 µM, first compound 3.16 µM
[18] = second compound 0.1 µM, first compound 10 µM
[19] = second compound 0.316 µM, first compound 0.0316 µM
[20] = second compound 0.316 µM, first compound 0.1 µM
[21] = second compound 0.316 µM, first compound 0.316 µM
[22] = second compound 0.316 µM, first compound 1 µM
[23] = second compound 0.316 µM, first compound 3.16 µM
[24] = second compound 0.316 µM, first compound 10 µM
[25] = second compound 1 µM, first compound 0.0316 µM
[26] = second compound 1 µM, first compound 0.1 µM
[27] = second compound 1 µM, first compound 0.316 µM
[28] = second compound 1 µM, first compound 1 µM
[29] = second compound 1 µM, first compound 3.16 µM
[30] = second compound 1 µM, first compound 10 µM
[31] = second compound 3.16 µM, first compound 0.0316 µM
[32] = second compound 3.16 µM, first compound 0.1 µM
[33] = second compound 3.16 µM, first compound 0.316 µM
[34] = second compound 3.16 µM, first compound 1 µM
[35] = second compound 3.16 µM, first compound 3.16 µM
[36] = second compound 3.16 µM, first compound 10 µM
[37] = second compound 10 µM, first compound 0.0316 µM
[38] = second compound 10 µM, first compound 0.1 µM
[39] = second compound 10 µM, first compound 0.316 µM
[40] = second compound 10 µM, first compound 1 µM
[41] = second compound 10 µM, first compound 3.16 µM
[42] = second compound 10 µM, first compound 10 µM
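Note: spheroids exposed to drugs for 7 days.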
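Throughout, for viability, T/C: 100% = DMSO vehicle treated spheroids.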

O=C(c1cc(Cc2n[nH]c(=O)c3ccccc23)ccc1F)N1CCN(C(=O)C2CC2)CC1 + Nc1ccc(C#CCN(C(=O)Cc2ncc(C(F)(F)F)cc2C(F)(F)F)c2ccc(F)cc2)nn1
IC50 [1]: 6.71 µM | IC50 [2]: 6.45 µM | IC50 [3]: 4.09 µM | IC50 [4]: 5.26 µM | IC50 [5]: 3.82 µM | IC50 [6]: 7 µM | viability, T/C [7]: 116% | viability, T/C [8]: 88.8% | viability, T/C [9]: 101% | viability, T/C [10]: 72.6% | viability, T/C [11]: 76.6% | viability, T/C [12]: 37.3% | viability, T/C [13]: 61.7% | viability, T/C [14]: 113% | viability, T/C [15]: 70.5% | viability, T/C [16]: 78.6% | viability, T/C [17]: 83.5% | viability, T/C [18]: 30.6% | viability, T/C [19]: 101% | viability, T/C [20]: 84.9% | viability, T/C [21]: 84% | viability, T/C [22]: 55.8% | viability, T/C [23]: 70.8% | viability, T/C [24]: 29.6% | viability, T/C [25]: 78.9% | viability, T/C [26]: 111% | viability, T/C [27]: 66% | viability, T/C [28]: 92.8% | viability, T/C [29]: 55.9% | viability, T/C [30]: 42.6% | viability, T/C [31]: 94.8% | viability, T/C [32]: 80.3% | viability, T/C [33]: 77.8% | viability, T/C [34]: 58.8% | viability, T/C [35]: 57.9% | viability, T/C [36]: 37.1% | viability, T/C [37]: 66.4% | viability, T/C [38]: 87.3% | viability, T/C [39]: 70.3% | viability, T/C [40]: 92.3% | viability, T/C [41]: 80.1% | viability, T/C [42]: 36.8%

CC1COCCN1c1cc(C2(O)CC3CCC(C2)O3)c2cnn(-c3ccn[nH]3)c2n1 (stereo not drawn)
viability, T/C (compound 0.0316 µM): 38.3% and 52.8% and 44.6% | viability, T/C (compound 0.1 µM): 16.8% and 26.7% and 40.6% | viability, T/C (compound 0.316 µM): 18.2% and 26.2% and 20% | viability, T/C (compound 1 µM): 23.1% and 20.1% and 17.9% | viability, T/C (compound 3.16 µM): 9.3% and 14.8% and 12% | viability, T/C (compound 10 µM): 6.01% and 4.54% and 7.55% | IC50 (curve of compound): < 0.0316 µM

CC1COCCN1c1cc(C2(O)CC3CCC(C2)O3)c2cnn(-c3ccn[nH]3)c2n1 (stereo not drawn) + Nc1ccc(C#CCN(C(=O)Cc2ncc(C(F)(F)F)cc2C(F)(F)F)c2ccc(F)cc2)nn1
IC50 [1]: 0.0513 µM | IC50 [2]: < 0.0316 µM | IC50 [3]: < 0.0316 µM | IC50 [4]: 0.0687 µM | IC50 [5]: 0.0386 µM | IC50 [6]: < 0.0316 µM | viability, T/C [7]: 59.9% | viability, T/C [8]: 36.3% | viability, T/C [9]: 23.4% | viability, T/C [10]: 18.8% | viability, T/C [11]: 13.9% | viability, T/C [12]: 6.85% | viability, T/C [13]: 43.3% | viability, T/C [14]: 27.6% | viability, T/C [15]: 24.2% | viability, T/C [16]: 19.9% | viability, T/C [17]: 10.6% | viability, T/C [18]: 9.96% | viability, T/C [19]: 48.5% | viability, T/C [20]: 24.9% | viability, T/C [21]: 26.3% | viability, T/C [22]: 19.6% | viability, T/C [23]: 17.6% | viability, T/C [24]: 9.49% | viability, T/C [25]: 74.5% | viability, T/C [26]: 31.9% | viability, T/C [27]: 33.7% | viability, T/C [28]: 10.7% | viability, T/C [29]: 13% | viability, T/C [30]: 9.29% | viability, T/C [31]: 55.6% | viability, T/C [32]: 22.8% | viability, T/C [33]: 19.8% | viability, T/C [34]: 21.4% | viability, T/C [35]: 17.8% | viability, T/C [36]: 8.76% | viability, T/C [37]: 38.3% | viability, T/C [38]: 54.1% | viability, T/C [39]: 24.6% | viability, T/C [40]: 23.6% | viability, T/C [41]: 14.6% | viability, T/C [42]: 5.15%

COc1cccc2c1C(=O)c1c(O)c3c(c(O)c1C2=O)CC(O)(C(=O)CO)CC3OC1CC(N)C(O)C(C)O1 (stereo not drawn)
viability, T/C (compound 0.0316 µM): 24.5% and 30.4% and 28.5% | viability, T/C (compound 0.1 µM): 5.96% and 8.53% and 11.6% | viability, T/C (compound 0.316 µM): 2.17% and 5.76% and 2.69% | viability, T/C (compound 1 µM): 1.78% and 1.25% and 2.38% | viability, T/C (compound 3.16 µM): 2.29% and 1.69% and 2.17% | viability, T/C (compound 10 µM): 2.7% and 0.94% and 0.62% | IC50 (curve of compound): < 0.0316 µM
